Experimental findings from US20020107197A1, “Ligands for G protein coupled receptors and methods of using them” (priority 2000, published 2002) are described below.

For assay [1], the target named is T1, GPR4 (Homo sapiens, UniProt P46093).
T1 construct: were used to generate full length GPR4, which was digested with EcoRI and Xba I and cloned into the pBs3HA vector; expressed in transfected cells
In words: Radioligand binding to homogenates of GPR4-transfected CHO cells. Conditions: GPR4-transfected CHO cell homogenates; for maximum binding capacity / pKd: 4° C.; for pKd: Scatchard analysis, [3H]SPC or [3H]16:0-LPC, read-out: dissociation constant (Kd); for competition for binding of [3H]SPC and [3H]16:0-LPC to GPR4: cold competitors. As to the method:
To characterize the binding of SPC and LPC to GPR4 and TDAG8, we conducted radioligand binding assays. CHO cells were chosen for GPR4 binding assays, since HEK293 cells express relatively high levels of endogenous GPR4. CHO cells stably transfected with empty vector or GPR4 were serum starved for 20 h, then collected after exposure to 2 mM EDTA in PBS. The pelleted cells were stored at −80° C. until use. Binding assays were performed essentially as described previously (Xu et al. (2000) Nat Cell Biol 2, 261-267), except binding was performed at 4° C. Briefly, frozen cells (10^6 cells/ml) were homogenized in a binding buffer. Assays were performed in 96-well plates in triplicate with 100 μl cell homogenate (equivalent to 10^5 cells/well). Different amounts of [^3H]SPC or [^3H]16:0-LPC were added to the cell homogenates in 50 μl of binding buffer, in the presence or absence of cold SPC or 16:0-LPC, or other competitors. The plates were incubated at 4° C. for 120 min, unless otherwise indicated. Cell-bound [^3H]SPC or [^3H]LPC was collected onto a filter (Printed Filtermat A, Wallac, Gaithersburg, Md.) using an automated cell harvester (HARVESTER 96, Tomtec, Orange, Conn.). Specific binding was calculated by subtraction of nonspecific binding (binding detected in the presence of 100-fold excess unlabeled SPC or 16:0-LPC) from the total binding.
Cell homogenates were used for binding assays. Binding was conducted at 4° C. for 120 min or as indicated. [^3H]SPC and [^3H]16:0-LPC specifically bound to cell homogenates from GPR4-transfected CHO cells in a time-dependent manner and reached equilibrium after 60 min incubation at 4° C. […] The maximum binding capacities for SPC and 16:0-LPC were 996 fmole/10^5 cells for SPC and 1,528 fmole/10^5 cells for 16:0-LPC. […] Binding assays using [^3H]18:0-LPC gave similar results. We also tested the four glycosphingolipids, Psy, Glu-Sph, Gal-Cer, and Lac-Cer, for their ability to compete for the binding of [^3H]SPC and [^3H]16:0-LPC to GPR4.

The target of assay [2] is T1, GPR4. In words: Single-cell intracellular calcium assay (fura-2) in GPR4-GFP-transfected MCF10A cells. Conditions: for increase in [Ca2+]i in GPR4- vs vector-transfected/parental MCF10A cells: lipid at 1 μM; for pEC50: GPR4-transfected MCF10A cells, 1 mM EGTA, read-out: EC50 of calcium mobilization; for block of the lipid-induced increase in [Ca2+]i by BSA: lipid 1 μM preincubated with 0.5% fatty acid-free BSA, lipid:BSA approximately 1:75. In kind it is cell-based. Here is the method: Measurement of [Ca^2+]i, was performed as described previously in Xu et al. (2000) Nat Cell Biol 2, 261-267. Briefly, pGPR4-GFP-transfected MCF10A cells were grown in specialized glass-bottom dishes (Bioptech, Inc., Butler, Pa.) and loaded with fura-2 in HEPES buffered saline. Using a dual-wavelength spectrofluorometer (RFK-6002, Photon Technology Int'l, So. Brunswick, N.J.) coupled to an inverted fluorescence microscope (Olympus, IX-70, Lake Success, N.Y.), GFP-positive cells were identified using an excitation wavelength of 488 nm, a dichroic 505 nm long-pass filter and an emitter filter at bandpass of 535 nm (Chroma Technology, Brattleboro, Vt.). Measurements of [Ca^2+]i were performed on individual GPR4-GFP positive cells at excitation wavelengths of 340 and 380 nm and an emission wavelength of 510 nm. Conversion of the 340/380 ratio value into [Ca^2+]i in nM was estimated by comparing the cellular fluorescence ratio with ratios acquired using fura-2 (free acid) in buffers containing known Ca^2+ concentrations. [Ca^2+]i was then calculated as described by Grynkiewicz et al. (1985) J Biol Chem 260, 3440-3450. All calcium assays were performed in the presence of 1 mM EGTA in the assay buffers. Therefore, intracellular calcium release, not calcium influx, was analyzed.
To test whether GPR4 is a receptor for SPC, MCF10A cells were transiently transfected with pGPR4-GFP.
The GFP receptor fusion was used to identify positively transfected cells, and single-cell calcium assays were performed as described in our previous studies, such as Xu et al. (2000) Nat Cell Biol 2, 261-267.

Assay [3] has as its system vector-transfected HEK293 cells. In words: SRE luciferase reporter in vector-transfected HEK293 cells. In kind it is cell-based, human. Here is the method: The serum-response element (SRE) reporter system is a sensitive assay for receptors of lipid factors (An et al. (1998) J Biol Chem 273, 7906-7910; An et al. (1999) Mol Pharmacol 55, 787-794). The SRE reporter system used herein (pSRE-Luc) was a gift from Dr. Songzhu An (UCSF), or may be purchased from Stratagene (La Jolla, Calif.). Both systems give identical results. HEK293 and HEK293GPR4 cells were cultured in RPMI1640 with 10% FBS in 10 cm dishes to ˜85% confluence. To the cells in each dish, pSRE-Luc (10 μg) was transfected in the presence of 60 μl LipofectAMINE reagent. Cells were seeded in 96-well plates 16 h after transfection, incubated for another 24 h in RPMI1640 with 10% FBS, and starved in serum-free medium for 16 h. SPC (dissolved in PBS to 10 mM) and other lipids (LPCs were dissolved in 70% ethanol. Other lipids were dissolved in PBS, 70-95% ethanol, or 100% MeOH) were diluted in serum free RPMI 1640 and added to the cells, followed by a 10 h incubation. Luciferase activity was measured in Microlite™ 1 plates (DYNEX Technologies, Inc., Virginia) using 60 μl of cell lysate and 20 μl luciferase substrate. PTX (100 ng/ml) was added during the 16 h serum starvation period and pcDNA1-C3 (encoding the C3-exoenzyme, 2 μg) was co-transfected with pSRE-Luc (10 μg). All experiments were performed in quadruplicate and were repeated at least three times. The Student's t test was performed using the GraphPad Instat software (San Diego, Calif.). p<0.05 was considered to be statistically significant.
In general terms: Reporter assays use an easily measured gene product as a stand-in for the process of interest.

The target in assay [4] is T1, GPR4. The experiment in a line: Transwell cell migration of GPR4-transfected HEK293 cells. In kind it is cell-based. Particulars: 0.2 μM. As to the method:
To determine whether GPR4 and/or TDGA8 can mediate the LPC-induced cell migration, we transfected HEK293 cells with GPR4 or TDAG8. Cell migration was performed in Transwell apparatus. GPR4-transfected HEK293 cells, and TDAG8-transfected HEK293 cells migrated to the low-phase of the membrane and the lower chamber of the Transwell in response to SPC and LPC, used at 0.2 μM.

Assay [5] has as its target T2, TDAG8 (Homo sapiens, UniProt Q8IYL9).
T2 construct: expressed in transfected cells
In words: MAP kinase reporter system in TDAG8 co-transfected HEK293 cells. Particulars: 1-5 μM. In kind it is cell-based. The text has this: To further explore the TDAG8-mediated cellular response to SPC, MAP kinase activation was examined using the MAP kinase reporter system from Stratagene.

What is called pKd is −log10 of the Kd, conventionally taken in molar units. In general, pEC50 refers to −log10 of the EC50, conventionally taken in molar units.

pEC50, pKd: −log10 of the molar value.

T1 sequence (P46093 whole entry): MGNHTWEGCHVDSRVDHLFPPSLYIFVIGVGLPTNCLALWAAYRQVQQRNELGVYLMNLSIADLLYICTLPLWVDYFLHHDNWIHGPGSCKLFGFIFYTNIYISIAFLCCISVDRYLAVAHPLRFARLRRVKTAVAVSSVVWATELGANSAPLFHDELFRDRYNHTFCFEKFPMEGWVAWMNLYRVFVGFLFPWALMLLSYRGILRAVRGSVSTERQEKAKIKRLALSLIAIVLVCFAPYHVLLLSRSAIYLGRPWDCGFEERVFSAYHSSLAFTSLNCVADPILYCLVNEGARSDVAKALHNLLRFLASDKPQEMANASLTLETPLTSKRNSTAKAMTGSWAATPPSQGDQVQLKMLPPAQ
T2 sequence (Q8IYL9 whole entry): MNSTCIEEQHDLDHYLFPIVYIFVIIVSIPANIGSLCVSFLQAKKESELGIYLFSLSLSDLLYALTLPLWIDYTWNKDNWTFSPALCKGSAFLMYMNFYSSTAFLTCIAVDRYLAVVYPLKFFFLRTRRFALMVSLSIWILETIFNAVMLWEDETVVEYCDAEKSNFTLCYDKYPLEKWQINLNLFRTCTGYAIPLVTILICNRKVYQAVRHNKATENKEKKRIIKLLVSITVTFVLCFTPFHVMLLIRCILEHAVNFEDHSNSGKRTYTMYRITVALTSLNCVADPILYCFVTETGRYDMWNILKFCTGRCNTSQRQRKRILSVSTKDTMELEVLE

For the molecule `CCCCCCCCCCCCCCCC(=O)OC[C@@H](O)COP(=O)([O-])OCC[N+](C)(C)C` [16:0-LPC], in assay [1], the maximum binding capacity is 1,528 fmole/10^5 cells; the pKd is 6.80; the “competition for binding of [3H]SPC and [3H]16:0-LPC to GPR4” value was “successfully competed for binding”. In addition, in assay [2], the “increase in [Ca2+]i in GPR4- vs vector-transfected/parental MCF10A cells” value was “stimulated to produce increased [Ca^2+]i”. Moreover, in assay [3], the “transcriptional activation of SRE (in words)” value is “not”.
Regarding `CCCCCCCCCCCCC/C=C/[C@@H](O)[C@@H](N)COP(=O)([O-])OCC[N+](C)(C)C` [SPC, Sphingosylphosphorylcholine], in assay [1], the maximum binding capacity is listed as 996 fmole/10^5 cells; the negative logarithm of the Kd (pKd) is 7.44; the “competition for binding of [3H]SPC and [3H]16:0-LPC to GPR4” value is given as “successfully competed for binding”. Also, in assay [2], the negative-log EC50 (pEC50) was 6.98; the “block of the lipid-induced increase in [Ca2+]i by BSA” value is listed as “more than 50%”; the “increase in [Ca2+]i in GPR4- vs vector-transfected/parental MCF10A cells” value is “stimulated an increase in [Ca^2+]i in GPR4-, but not vector-transfected MCF10A cells”. For the same molecule, the “cell migration in Transwell (in words)” value in assay [4] is reported as “increased cell migration”. Besides, the “activation of p42/44 MAP kinase (reporter luciferase activity)” value in assay [5] is “induced activation of p42/44 MAP kinase”. The “activation of SRE reporter” value in assay [3] (lipid 1 μM) was not above 1.5 fold.
Regarding lysophosphatidylcholine [LPC], the pKd in assay [1] is 6.80. Further, in assay [2], the pEC50 was 5.96 and the “block of the lipid-induced increase in [Ca2+]i by BSA” value is given as more than 95%. Besides, the “cell migration in Transwell (in words)” value in assay [4] is “increased cell migration”. Moreover, the “activation of p42/44 MAP kinase (reporter luciferase activity)” value in assay [5] is “induced activation of p42/44 MAP kinase”.
